According to paper PMC10985144, “Design, synthesis, and evaluation of the novel ozagrel–paeonol codrug with antiplatelet aggregation activities as a potent anti-stroke therapeutic agent” (Frontiers in Pharmacology, 2024):
Where “and” joins values, the source holds several entries; their conditions need not be identical. Equal values may be shown once. Read-outs that look alike come from different tables or passages of the source.

Assays:
[1] = tested on: AA-induced platelet aggregation; test: AA-induced platelet aggregation (antiplatelet aggregation activity); format: cell-based; conditions: platelet aggregation induced by AA (1 μM); mean ± SD, n = 5
Description: The antiplatelet aggregation activity of the target compounds was evaluated against ADP- and AA-induced platelet aggregation. In other words, different concentrations of the target compound solution and POC ([Zhang J. et al., 2021]) (10 μL) were added to the plasma at 37°C for 5 min. […] Variations in absorbance were monitored for 5 min in order to measure platelet aggregation ([Daron et al., 2022]). The platelet aggregation inhibition rate (AIR) was calculated according to the following formula: AIR = (rate of aggregation (control)−rate of aggregation (compounds))/rate of aggregation (control) × 100%

[2] = tested on: ADP-induced platelet aggregation; test: ADP-induced platelet aggregation (antiplatelet aggregation activity); format: cell-based; conditions: platelet aggregation induced by ADP (10 μM); mean ± SD, n = 5
Description: The antiplatelet aggregation activity of the target compounds was evaluated against ADP- and AA-induced platelet aggregation. In other words, different concentrations of the target compound solution and POC ([Zhang J. et al., 2021]) (10 μL) were added to the plasma at 37°C for 5 min. Then, platelets were stimulated with ADP (10 μM, 30 μL) or AA (1 mM, 30 μL). Variations in absorbance were monitored for 5 min in order to measure platelet aggregation ([Daron et al., 2022]). The platelet aggregation inhibition rate (AIR) was calculated according to the following formula: AIR = (rate of aggregation (control)−rate of aggregation (compounds))/rate of aggregation (control) × 100%

[3] = Pharmacokinetic study after single i.g. or i.v. administration to rats; format: in vivo; conditions: for AUC(0-t) / AUC(0-∞) / half-life / MRT last: single 6.4 mg/kg, mean ± SD; for AUC(0-t) / AUC(0-∞) / half-life: n = 6; for MRT last: n = 6, read-out: MRT (0-t) (converted)
Description: Six rats were given compound 8b (6.4 mg/kg) ([Zhang J. et al., 2021]) by intravenous injection (i.v.) and intragastric administration (i.g.), respectively. The animal experiment protocol was performed according to the guidelines for animal experiments and supervised by the Experimental Animal Ethics Committee of Anhui University of Chinese Medicine (AHUCM-rats-2019001). Then, approximately 1.0 mL of blood was taken from the orbital venous plexus of the rats and placed into an EP-containing heparin at predetermined time points of 3, 5, 10, 20, 30, 45, 60, 120, and 240 min after dosing. The blood sample was centrifuged for 15 min at 3,500 rpm to obtain plasma. For plasma preparation, 180 μL of plasma was mixed with 20 μL of glibenclamide as an internal standard and 900 μL of acetonitrile. The mixture was then centrifuged at 12,000 rpm for 10 min. After centrifugation, 800 μL of the supernatant was dried using a vacuum freeze dryer. The dried sample was then reconstituted with 200 μL of acetonitrile for LC/MS analysis. The analytical conditions for the plasma samples are as follows: a Hypersil GOLD C8 HPLC Column (2.1 mm × 100 mm, 1.9μm; Thermo Fisher Scientific, United States) was used for chromatographic separation. The column temperature was maintained at 30°C, and the sample chamber temperature was maintained at 4°C. A gradient elution with a flow rate of 0.2 mL/min (phase A: 0.1% formic acid, phase B: methanol) was carried out from 45% B to 80% within 2.5 min, then from […] to 90% within 1 min, and maintained at 90% for 1 min; subsequently, it was decreased from 90% to 45% in 30 s and maintained for 1 min. Multiple-reaction monitoring (MRM) was quoted as the acquisition mode of mass spectrometry in a positive ionization mode. The mass spectrometry detector was equipped with an electrospray ionization (ESI) source. The optimal MS parameters were as follows: the ion source temperature was set at 400°C, the vaporization temperature was set at 500°C, the electrospray voltage was set to 5500 V, and the capillary voltage was set to 3600 V. The ion pair of 8b is m/z 517.0 and 281.4, and the declustering voltage is 120 eV; the collision energy is 40 eV. Similarly, the ion pair of glibenclamide is m/z 494.1 and 169.0, the declustering voltage is 65 eV, and the collision energy is 50 eV.

OGD/R PC12 cells = test: Protective effect on OGD/R PC12 cells (oxygen-glucose deprivation), CCK-8; format: cell-based; conditions: Rattus norvegicus, mean ± SD, n = 5, read-out: Cell viability (%)
Description: (§1) For the cell culture conditions, rat pheochromocytoma PC12 cells (ATCC, Manassas, VA, United States) were cultured in RPMI 1640 culture medium with 1% penicillin and streptomycin and 10% fetal bovine serum (FBS) (Gibco, Waltham, MA, United States) at 37°C with 5% CO2.
For oxygen-glucose deprivation of PC12 cell activity, the procedure was conducted as follows ([Wei et al., 2022]): the cells were cultured in a 96-well plate for 24 h. Then, the culture medium was replaced with oxygen–glucose-free RPMI 1640 and placed in an incubator with 5% CO2 and 95% N2 for 2 h. Once the oxygen-free process was completed, the culture medium was changed back to RPMI 1640 and maintained at 37°C with 5% CO2 for an additional 24 h. Cell viability was then assessed using the CCK-8 assay.

PC12 cells = test: Viability of PC12 cells, CCK-8 assay; format: cell-based, rat; conditions: 24 h
Description: as §1
Cell viability was assessed using a CCK-8 assay. The PC12 cells were seeded in a 96-well plate at a density of 1 × 10^5 cells per well. After incubation for 24 h, the cells were treated with various concentrations of the compound. After 24 h of re-incubation, the cell viability was evaluated using a 10% CCK-8 solution. The absorbance value was determined at 450 nm.

[4] = design: method as in Zhang J. et al., 2021; conditions: found in the authors' previous study; ref Zhang J. et al., 2021; cited from earlier work

O=C(O)/C=C/c1ccc(Cn2ccnc2)cc1 [Ozagrel, (E)-sodium 4-(1-imidazolomethyl) cinnamate] gave an IC50 [1] of 52.5 ± 3.29 µM and an IC50 [2] of over 1000 µM.

COc1ccc(C(C)=O)c(OCCCN2CCN(C(=O)C=Cc3ccc(Cn4ccnc4)cc3)CC2)c1 [PNC2] gave an IC50 [1] of 462 ± 28.7 µM and an IC50 [2] of over 1000 µM.

For COc1ccc(C(C)=O)c(OCCCCN2CCN(C(=O)C=Cc3ccc(Cn4ccnc4)cc3)CC2)c1 [PNC3], the IC50 [1] was 74.7 ± 4.86 µM, the IC50 [2] was 485 ± 31.1 µM and the “time remained detectable in the blood” value ([3]; i.g.) was “up to 8 h”. For the same compound, the “MRT i.g. relative to i.v.” value ([3]; i.g. longer than i.v.) was 2.11 times, the “t1/2 i.g. relative to i.v.” value ([3]; i.g. longer than i.v.) was 2.33 times and the “AUC(0-t)” value ([3]; i.g.) was 6148.338 ± 2222.737 µg·min/L. The “AUC(0-∞)” value ([3]; i.g.) was 8346.219 ± 3,719.156 μg/L*min, the “time within which peak concentration was visible” value ([3]; i.v.) was at most 6 h and the “AUC(0-t)” value ([3]; i.v.) was 18,552.773 ± 7438.264 μg/L*min. The “AUC(0-∞)” value ([3]; i.v.) was 19,250.669 ± 7673.11 μg/L*min, the half-life ([3]; rat, plasma, iv) was 2.08 ± 0.295 h and the MRT last ([3]; rat, plasma, iv) was 2.5 h. It also gave a Tmax ([3]; rat, plasma, po, 6.4 mg/kg, i.g., read-out: time of peak concentration in the blood) of 1 h, a half-life ([3]; rat, plasma, po, i.g.) of 4.85 ± 1.74 h and an MRT last ([3]; rat, plasma, po, i.g.) of 5.28 h. The “AUC by i.g. relative to i.v.” value ([3]; ratio of AUC(0-t) i.g. vs i.v., 6.4 mg/kg) was 33.3% and 33.1%, the viability at 0.02 µM (OGD/R PC12 cells; PC-12, 0.02 μM) was 50.5 ± 2.95% and the viability at 0.04 µM (OGD/R PC12 cells; PC-12, 0.04 μM) was 54.2 ± 2.68%. The viability at 0.08 µM (OGD/R PC12 cells; PC-12, 0.08 μM) was 62.3 ± 3.14%, the “impact on cell viability” value (PC12 cells; 0–0.16 μM) was “no impact on cell viability” and the cell survival rate (PC12 cells; 0.08 μM) was 97.52%. The cell survival rate (PC12 cells; concentration exceeded 0.16 μM) was 94.03%.

COc1ccc(C(C)=O)c(OCCCCCN2CCN(C(=O)C=Cc3ccc(Cn4ccnc4)cc3)CC2)c1 [PNC4] gave an IC50 [1] of 692 ± 45.7 µM and an IC50 [2] of over 1000 µM.

COc1ccc(C(C)=O)c(OCCCNC(=O)C=Cc2ccc(Cn3ccnc3)cc2)c1 [PNC5, 3-(4-((1H-imidazol-1-yl)methyl)phenyl)-N-(3-(2-acetyl-5-metho-xyphenoxy)propyl)acrylamide] showed an IC50 [1] of 234 ± 16.6 µM and an IC50 [2] of over 1000 µM.

For COc1ccc(C(C)=O)c(OC(=O)C=Cc2ccc(Cn3ccnc3)cc2)c1 [POC, reference compound], the IC50 [1] is given as 349 ± 16 µM, the IC50 [2] is given as 842 ± 53.3 µM and the stability [4] is given as “unstable”.
